Among the data in patent US20120295923A1, “Aminocyclohexanes and Aminotetrahydropyrans and Related Compounds As Gamma-Secretase Modulators” (PFIZER INC., priority 2010, published 2012) are IC50 values, retold here.

For the assay, the system named is γ-secretase; production of amyloid beta protein Aβ(1-42). In words: Cell-Based γ-Secretase Assay with ELISA Readout. As to conditions: human WT-APP overexpressing CHO cells; geometric mean of 2-4 determinations unless otherwise indicated (footnote 10: 6-8; footnote 14: single determination); read-out: Aβ 42B IC50. The method, then: The ability of compounds to modulate production of amyloid beta protein A6(1-42) was determined using human WT-APP overexpressing CHO cells. Cells were plated at 22,000 cells/100 μL well in 96 well tissue culture treated, clear plates (Falcon) in DMEM/F12 based medium and incubated for 24 hours at 37° C. Compounds for testing were diluted in 100% DMSO to achieve an eleven points, half log, dose response for IC50 determinations. Compounds were added in fresh medium to achieve 1% final DMSO. Appropriate vehicle and inhibitor controls were added to obtain maximum and minimum inhibition values for the assay before the plates were incubated for about 24 hours at 37° C.
Coating of ELISA assay plates was initiated by addition of 50 μL/well of an in-house Aβ(1-42) specific antibody at (4 μg/mL) in 0.1 M NaHCO3 (pH 9.0) into black 384-well Maxisorp® plates (Nunc) and incubated overnight at 4° C. The capture antibody was then aspirated from the ELISA assay plates and 100 μL/well of Blocking Buffer (Dulbecco's PBS, 1.5% BSA (Sigma A7030)) added. Ambient temperature incubation was allowed to proceed for a minimum of two hours before washing 2×100 μL with Wash Buffer (Dulbecco's PBS, 0.05% Tween 20). Assay Buffer (Dulbecco's PBS, 1.0% BSA (Sigma A7030), 0.05% Tween 20) 20 μL/well was then added.
After incubation overnight at 37° C., 5% CO2, 40 μL (in duplicate) of experimental conditioned media were transferred into wells of the blocked ELISA plates containing the capture antibody, followed by overnight incubation at 4° C.
After overnight incubation of the ELISA assay plates at 4° C., unbound Aβ peptides were removed thorough (4×100 μL) washes with Wash Buffer. Europium (Eu) labeled (custom labeled, Perkin Elmer) Aβ(1-16) 6e10 Monoclonal Antibody (Covance #SIG-39320 was added, (50 μL/well Eu-6e10 @ 1:5000, 20 uM EDTA) in Assay Buffer. Incubation at ambient temperature for a minimum of 2 hours was followed by (4×100 μL) washes with Wash Buffer, before 50 μL/well of Delfia Enhancement Solution (PerkinElmer) was added. Following a one hour ambient temperature incubation, the plates were read on an EnVision plate reader (PerkinElmer) using standard DELFIA TRF settings. Data analysis including inhibitory IC50 determination was performed using nonlinear regression fit analysis (in-house software) and the appropriate plate mean values for the maximum and minimum inhibition controls.

Where a name gives a salt, the structure may show the parent alone.

Turning to `O=C(O)C[C@@H]1CC[C@@H](N(CC2CCCC2)CC2CCC2)[C@H](c2ccc(C(F)(F)F)cc2)C1` [Example 50, {(1R,3S,4R)-4-[(cyclobutylmethyl) (cyclopentyl)methyl)amino]-3-[4-(trifluoromethyl)phenyl] cyclohexyl}acetic acid, ammonium salt], the IC50 – broadly, the concentration that gives 50% inhibition – was found to be 0.463 µM. With `CC(CN(CC1CCCC1)[C@@H]1CC[C@@H](CC(=O)O)C[C@H]1c1ccc(Cl)cc1)C(F)(F)F` (stereo partly drawn) [Example 51, {(1R,3S,4R)-3-(4-chlorophenyl)-4-[(cyclopentylmethyl)(3,3,3-trifluoro-2-methylpropyl)amino]cyclohexyl}acetic acid, trifluoroacetate salt] the figure was 0.382 µM; with `CC(C)CN(CC1(F)CCCCC1)[C@@H]1CC[C@@H](CC(=O)O)C[C@H]1c1ccc(C(F)(F)F)cc1` [Example 52, {(1R,3S,4R)-4-{[(1-fluorocyclohexyl)methyl] (isobutyl)amino}-3-[4-(trifluoromethyl)phenyl]cyclohexyl}acetic acid, trifluoroacetate salt], 0.19 µM; with `Cc1nc(CN(CC2CCCC2)[C@@H]2CC[C@@H](CC(=O)O)C[C@H]2c2ccc(C(F)(F)F)cc2)co1` [Example 53, {(1R,3S,4R)-4-{(cyclopentylmethyl)[(2-methyl-1,3-oxazol-4-yl)methyl]amino}-3-[4-(trifluoromethyl)phenyl]cyclohexyl}acetic acid, ammonium salt], 0.959 µM.

For the compound `O=C(O)C[C@@H]1CC[C@@H](N(CC2CCCC2)CC2CCCC2)[C@H](c2ccc(Cl)c(F)c2)O1` [Example 54, [(2S,5R,6S)-5-[bis(cyclopentylmethyl)amino]-6-(4-chloro-3-fluorophenyl)tetrahydro-2H-pyran-2-yl]acetic acid, ammonium acid], the IC50 worked out at 1.05 µM.

Consider `O=C(O)C[C@@H]1CC[C@@H](N(CC2CCCC2)CC2CCCC2)[C@H](c2ccc(Cl)cc2)O1` [Example 55, [(2S,5R,6S)-5-[bis(cyclopentylmethyl)amino]-6-(4-chlorophenyl)tetrahydro-2H-pyran-2-yl]acetic acid], for which the half-maximal inhibitory concentration (IC50) was 0.892 µM. Turning to `CCOc1ccc(CN(CC(C)C)[C@@H]2CC[C@@H](CC(=O)O)C[C@H]2c2ccc(C(F)(F)F)cc2)cc1` [Example 57, {(1R,3S,4R)-4-[(4-ethoxybenzyl)(isobutyl)amino]-3-[4-(trifluoromethyl)phenyl]cyclohexyl}acetic acid, trifluoroacetate salt], the IC50 was 0.171 µM. `COc1cccc(F)c1CN(CC1(F)CCCCC1)[C@@H]1CC[C@@H](CC(=O)O)C[C@H]1c1ccc(C(F)(F)F)cc1` [Example 58, {(1R,3S,4R)-4-{[(1-fluorocyclohexyl)methyl](2-fluoro-6-methoxybenzyl)amino}-3-[4-(trifluoromethyl)phenyl]cyclohexyl}acetic acid, trifluoroacetate salt]: the IC50 amounted to 0.309 µM. For `CCCc1nscc1CN(CC(C)C)[C@@H]1CC[C@@H](CC(=O)O)C[C@H]1c1ccc(C(F)(F)F)cc1` [Example 59, {(1R,3S,4R)-4-{isobutyl[(3-propylisothiazol-4-yl)methyl]amino}-3-[4-(trifluoromethyl)phenyl]cyclohexyl}acetic acid, trifluoroacetate salt] the value was 0.349 µM; for `CC(C)CN(CC1=CCCCC1)[C@@H]1CC[C@@H](CC(=O)O)C[C@H]1c1ccc(C(F)(F)F)cc1` [Example 60, {(1R,3S,4R)-4-[(cyclohex-1-en-1-ylmethyl)(isobutyl)amino]-3-[4-(trifluoromethyl)phenyl]cyclohexyl}acetic acid, trifluoroacetate salt], 0.154 µM. Turning to `O=C(O)C[C@@H]1CC[C@@H](N(Cc2ccc3c(c2)CCO3)CC2(F)CCCCC2)[C@H](c2ccc(C(F)(F)F)cc2)C1` [Example 61, {(1R,3S,4R)-4-{(2,3-dihydro-1-benzofuran-5-ylmethyl)[(1-fluorocyclohexyl)methyl]amino}-3-[4-(trifluoromethyl)phenyl]cyclohexyl}acetic acid, trifluoroacetate salt], the IC50 is 0.607 µM.

For `O=C(O)C[C@@H]1CC[C@@H](N(CC2=Cc3ccccc3OC2)CC2(F)CCCCC2)[C@H](c2ccc(C(F)(F)F)cc2)C1` [Example 62, {(1R,3S,4R)-4-{(2H-chromen-3-ylmethyl)[(1-fluorocyclohexyl)methyl]amino}-3-[4-(trifluoromethyl)phenyl]cyclohexyl}acetic acid, trifluoroacetate salt], the IC50 was found to be 0.223 µM. With `CC(C)CN(CC1=CCC2CC1C2(C)C)[C@@H]1CC[C@@H](CC(=O)O)C[C@H]1c1ccc(C(F)(F)F)cc1` (stereo partly drawn) [Example 63, {(1R,3S,4R)-4-{[(6,6-dimethylbicyclo[3.1.1]hept-2-en-2-yl)methyl](isobutyl)amino}-3-[4-(trifluoromethyl)phenyl]cyclohexyl}acetic acid, trifluoroacetate salt] the figure was 0.336 µM; with `CCc1csc(CN(CC2(F)CCCCC2)[C@@H]2CC[C@@H](CC(=O)O)C[C@H]2c2ccc(C(F)(F)F)cc2)n1` [Example 64, {(1R,3S,4R)-4-{[(4-ethyl-1,3-thiazol-2-yl)methyl][(1-fluorocyclohexyl)methyl]amino}-3-[4-(trifluoromethyl)phenyl]cyclohexyl}acetic acid, trifluoroacetate salt], 0.84 µM. With `O=C(O)C[C@@H]1CC[C@@H](N(Cc2ccc3nonc3c2)CC2(F)CCCCC2)[C@H](c2ccc(C(F)(F)F)cc2)C1` [Example 65, {(1R,3S,4R)-4-{(2,1,3-benzoxadiazol-5-ylmethyl)[(1-fluorocyclohexyl)methyl]amino}-3-[4-(trifluoromethyl)phenyl]cyclohexyl}acetic acid, trifluoroacetate salt] the figure was 0.509 µM; with `CC(C)CN(Cc1ccc(C(C)(C)C)cc1)[C@@H]1CC[C@@H](CC(=O)O)C[C@H]1c1ccc(C(F)(F)F)cc1` [Example 66, {(1R,3S,4R)-4-[(4-tert-butylbenzyl)(isobutyl)amino]-3-[4-(trifluoromethyl)phenyl]cyclohexyl}acetic acid, trifluoroacetate salt], 0.268 µM. As for `Cc1cc(CN(CC(C)C)[C@@H]2CC[C@@H](CC(=O)O)C[C@H]2c2ccc(C(F)(F)F)cc2)oc1C` [Example 67, {(1R,3S,4R)-4-{[(4,5-dimethyl-2-furyl)methyl](isobutyl)amino}-3-[4-(trifluoromethyl)phenyl]cyclohexyl}acetic acid, trifluoroacetate salt], the IC50 amounted to 0.411 µM.
